Results published in patent publication US7960339B2, “Antimicrobial peptides” (Österreichische Akademie der Wissenschaften, priority 2006, dated 2011).
Peptide text beside a SMILES is read from it. * marks the point of attachment. Dicyclohexylacetyl = O=C(C(C1CCCCC1)C1CCCCC1)*; Butanoyl(2,2-Me2) = CCC(C)(C)C(=O)*; Octanoyl(6-Me) = CCC(C)CCCCC(=O)*; Octanoyl = CCCCCCCC(=O)*; X1 = CCCCC(CC)C(=O)*

Tested on: C. neoformans ATCC 32045
Assay type: cell-based
Conditions: ATCC 32045, 72 h
Method: C. neoformans ATCC 32045 cultures were maintained on yeast medium (YM; Difco Laboratories, Detroit, Mich.) agar plates at 4° C. Prior to the assay, the cultures were grown on agar plates and incubated for 72 hrs at 26° C. Two colonies of these newly grown fungal cultures were then inoculated in 5 ml of 2×YM broth, vortexed, and diluted 10-fold in 2×YM broth, for an approximate final assay concentration of 1×105 to 5×10^5 CFU/ml. In 96-well tissue culture plates, fungal suspensions in 2×YM broth were added to the peptides dispensed at concentrations ranging from 1 mg/ml to 1 μg/ml derived from serial twofold dilutions in sterile water. The plates were then incubated for 72 hrs at 26° C. The relative percent growth of the fungi found for each test sample was determined by the optical density at 620 nm (OD620) by using a Titertek Multiskan Plus apparatus. […] The IC50 were calculated by using a sigmoidal curve-fitting software program (Graphpad Prism; ISI Software, San Diego, Calif.).

SMILES	average IC50	average MIC
CC(C)C[C@H](NC(=O)[C@H](CCCCN)NC(=O)[C@H](CCCCN)NC(=O)[C@H](CCCNC(=N)N)NC(=O)[C@H](Cc1c[nH]c2ccccc12)NC(=O)[C@H](Cc1ccccc1)NC(=O)[C@@H]1CCCN1)C(=O)N[C@@H](CCCCN)C(=O)N[C@@H](CCCNC(=N)N)C(N)=O [VS1-30, PFWRKKLKR-NH2] (H-PFWRKKLKR-NH2; N-terminus assumed)	10 µg/mL	32 µg/mL
N=C(N)NCCC[C@H](NC(=O)[C@H](CCCNC(=N)N)NC(=O)[C@H](Cc1c[nH]c2ccccc12)NC(=O)[C@H](CCCNC(=N)N)NC(=O)[C@H](CCCCN)NC(=O)[C@H](CCCNC(=N)N)NC(=O)[C@H](Cc1c[nH]c2ccccc12)NC(=O)[C@H](Cc1ccccc1)NC(=O)[C@@H]1CCCN1)C(N)=O [VS1-31, PFWRKRWRR-NH2] (H-PFWRKRWRR-NH2; N-terminus assumed)	8 µg/mL	32 µg/mL
CC[C@H](C)[C@H](NC(=O)[C@H](CCCNC(=N)N)NC(=O)[C@H](CCCNC(=N)N)NC(=O)[C@H](CCCNC(=N)N)NC(=O)[C@H](Cc1c[nH]c2ccccc12)NC(=O)[C@H](Cc1ccccc1)NC(=O)[C@@H]1CCCN1)C(=O)N[C@@H](CCCNC(=N)N)C(=O)N[C@@H](CCCNC(=N)N)C(N)=O [VS1-32, PFWRRRIRR-NH2] (H-PFWRRRIRR-NH2; N-terminus assumed)	9 µg/mL	32 µg/mL
N=C(N)NCCC[C@H](NC(=O)[C@H](CCCNC(=N)N)NC(=O)[C@H](Cc1c[nH]c2ccccc12)NC(=O)[C@H](CCCNC(=N)N)NC(=O)[C@H](CCCNC(=N)N)NC(=O)[C@H](CCCNC(=N)N)NC(=O)[C@H](Cc1c[nH]c2ccccc12)NC(=O)[C@H](Cc1ccccc1)NC(=O)[C@@H]1CCCN1)C(N)=O [VS1-33, PFWRRRWRR-NH2] (H-PFWRRRWRR-NH2; N-terminus assumed)	9 µg/mL	32 µg/mL
CC[C@H](C)[C@H](NC(=O)[C@H](CCCNC(=N)N)NC(=O)[C@@H](NC(=O)[C@H](CCCNC(=N)N)NC(=O)[C@H](Cc1c[nH]c2ccccc12)NC(=O)[C@@H]1CCCN1)[C@@H](C)CC)C(=O)N[C@@H](CCCNC(=N)N)C(=O)N[C@@H](CCCNC(=N)N)C(N)=O [VS1-34, PWRIRIRR-NH2] (H-PWRIRIRR-NH2; N-terminus assumed)	2 µg/mL	8 µg/mL
CC[C@H](C)[C@H](NC(=O)[C@H](CCCNC(=N)N)NC(=O)[C@H](CCCNC(=N)N)NC(=O)[C@H](Cc1c[nH]c2ccccc12)NC(=O)[C@@H]1CCCN1)C(=O)N[C@@H](CCCNC(=N)N)C(=O)N[C@@H](CCCNC(=N)N)C(N)=O [VS1-35, PWRRIRR-NH2] (H-PWRRIRR-NH2; N-terminus assumed)	12 µg/mL	32 µg/mL
CC[C@H](C)[C@H](NC(=O)[C@H](CCCCN)NC(=O)[C@H](CCCNC(=N)N)NC(=O)[C@H](CCCNC(=N)N)NC(=O)[C@H](Cc1c[nH]c2ccccc12)NC(=O)[C@@H]1CCCN1)C(=O)N[C@@H](CCCNC(=N)N)C(=O)N[C@@H](CCCNC(=N)N)C(N)=O [VS1-36, PWRRKIRR-NH2] (H-PWRRKIRR-NH2; N-terminus assumed)	11 µg/mL	62 µg/mL
CC[C@H](C)[C@H](NC(=O)[C@H](CCCNC(=N)N)NC(=O)[C@@H](NC(=O)[C@H](CCCNC(=N)N)NC(=O)[C@H](CCCNC(=N)N)NC(=O)[C@H](CCCNC(=N)N)NC(=O)[C@H](Cc1c[nH]c2ccccc12)NC(=O)[C@H](Cc1ccccc1)NC(=O)[C@@H]1CCCN1)[C@@H](C)CC)C(=O)N[C@@H](CCCNC(=N)N)C(=O)N[C@@H](CCCNC(=N)N)C(N)=O [VS1-37, PFWRRRIRIRR-NH2] (H-PFWRRRIRIRR-NH2; N-terminus assumed)	9 µg/mL	32 µg/mL
N=C(N)NCCC[C@H](NC(=O)[C@H](CCCNC(=N)N)NC(=O)[C@H](Cc1c[nH]c2ccccc12)NC(=O)[C@H](Cc1ccccc1)NC(=O)[C@H](Cc1c[nH]c2ccccc12)NC(=O)[C@H](CCCNC(=N)N)NC(=O)[C@@H](N)CCCNC(=N)N)C(=O)O [VS1-39, RRWFWRR-OH] (H-RRWFWRR-OH; N-terminus assumed)	6 µg/mL	32 µg/mL
CCCCCCCC(=O)N[C@@H](Cc1ccccc1)C(=O)N[C@@H](Cc1c[nH]c2ccccc12)C(=O)N[C@@H](CCC(N)=O)C(=O)N[C@@H](CCCNC(=N)N)C(=O)N[C@@H](CC(N)=O)C(=O)N[C@H](C(=O)N[C@@H](CCCNC(=N)N)C(=O)N[C@@H](CCCCN)C(=O)N[C@@H](Cc1c[nH]c2ccccc12)C(=O)N[C@@H](CCCNC(=N)N)C(N)=O)[C@@H](C)CC [VS1-40, octanoyl FWQRNIRKWR-NH2] (Octanoyl-FWQRNIRKWR-NH2)	2 µg/mL	8 µg/mL
CCCCC(CC)C(=O)N[C@@H](Cc1ccccc1)C(=O)N[C@@H](Cc1c[nH]c2ccccc12)C(=O)N[C@@H](CCC(N)=O)C(=O)N[C@@H](CCCNC(=N)N)C(=O)N[C@@H](CC(N)=O)C(=O)N[C@H](C(=O)N[C@@H](CCCNC(=N)N)C(=O)N[C@@H](CCCCN)C(=O)N[C@@H](Cc1c[nH]c2ccccc12)C(=O)N[C@@H](CCCNC(=N)N)C(N)=O)[C@@H](C)CC (stereo partly shown) [VS1-41, 2-ethylhexanoyl FWQRNIRKWR-NH2] (X1-FWQRNIRKWR-NH2)	4 µg/mL	8 µg/mL
CCC(C)CCCCC(=O)N[C@@H](Cc1ccccc1)C(=O)N[C@@H](Cc1c[nH]c2ccccc12)C(=O)N[C@@H](CCC(N)=O)C(=O)N[C@@H](CCCNC(=N)N)C(=O)N[C@@H](CC(N)=O)C(=O)N[C@H](C(=O)N[C@@H](CCCNC(=N)N)C(=O)N[C@@H](CCCCN)C(=O)N[C@@H](Cc1c[nH]c2ccccc12)C(=O)N[C@@H](CCCNC(=N)N)C(N)=O)[C@@H](C)CC (stereo partly shown) [VS1-43, 6-methyloctanoyl FWQRNIRKWR-NH2] ({Octanoyl(6-Me)}-FWQRNIRKWR-NH2)	6 µg/mL	16 µg/mL
CC[C@H](C)[C@H](NC(=O)[C@H](CC(N)=O)NC(=O)[C@H](CCCNC(=N)N)NC(=O)[C@H](CCC(N)=O)NC(=O)[C@H](Cc1c[nH]c2ccccc12)NC(=O)[C@H](Cc1ccccc1)NC(=O)C(C1CCCCC1)C1CCCCC1)C(=O)N[C@@H](CCCNC(=N)N)C(=O)N[C@@H](CCCCN)C(=O)N[C@@H](Cc1c[nH]c2ccccc12)C(=O)N[C@@H](CCCNC(=N)N)C(N)=O [VS1-44, dicyclohexylacetyl FWQRNIRKWR-NH2] (Dicyclohexylacetyl-FWQRNIRKWR-NH2)	4 µg/mL	16 µg/mL
CCCCCCCC(=O)N[C@@H](CCCNC(=N)N)C(=O)N[C@@H](Cc1c[nH]c2ccccc12)C(=O)N[C@@H](CCCCN)C(=O)N[C@@H](CCCNC(=N)N)C(=O)N[C@H](C(=O)N[C@@H](CC(N)=O)C(=O)N[C@@H](CCCNC(=N)N)C(=O)N[C@@H](CCC(N)=O)C(=O)N[C@@H](Cc1c[nH]c2ccccc12)C(=O)N[C@@H](Cc1ccccc1)C(N)=O)[C@@H](C)CC [VS1-45, octanoyl RWKRINRQWF-NH2] (Octanoyl-RWKRINRQWF-NH2)	2 µg/mL	4 µg/mL
CCCCC(CC)C(=O)N[C@@H](CCCNC(=N)N)C(=O)N[C@@H](Cc1c[nH]c2ccccc12)C(=O)N[C@@H](CCCCN)C(=O)N[C@@H](CCCNC(=N)N)C(=O)N[C@H](C(=O)N[C@@H](CC(N)=O)C(=O)N[C@@H](CCCNC(=N)N)C(=O)N[C@@H](CCC(N)=O)C(=O)N[C@@H](Cc1c[nH]c2ccccc12)C(=O)N[C@@H](Cc1ccccc1)C(N)=O)[C@@H](C)CC (stereo partly shown) [VS1-46, 2-ethylhexanoyl RWKRINRQWF-NH2] (X1-RWKRINRQWF-NH2)	4 µg/mL	8 µg/mL
CC[C@H](C)[C@H](NC(=O)[C@H](CCCNC(=N)N)NC(=O)[C@H](CCCCN)NC(=O)[C@H](Cc1c[nH]c2ccccc12)NC(=O)[C@H](CCCNC(=N)N)NC(=O)C(C)(C)CC)C(=O)N[C@@H](CC(N)=O)C(=O)N[C@@H](CCCNC(=N)N)C(=O)N[C@@H](CCC(N)=O)C(=O)N[C@@H](Cc1c[nH]c2ccccc12)C(=O)N[C@@H](Cc1ccccc1)C(N)=O [VS1-47, 2,2-dimethylbutanoyl RWKRINRQWF-NH2] ({Butanoyl(2,2-Me2)}-RWKRINRQWF-NH2)	8 µg/mL	16 µg/mL
CCC(C)CCCCC(=O)N[C@@H](CCCNC(=N)N)C(=O)N[C@@H](Cc1c[nH]c2ccccc12)C(=O)N[C@@H](CCCCN)C(=O)N[C@@H](CCCNC(=N)N)C(=O)N[C@H](C(=O)N[C@@H](CC(N)=O)C(=O)N[C@@H](CCCNC(=N)N)C(=O)N[C@@H](CCC(N)=O)C(=O)N[C@@H](Cc1c[nH]c2ccccc12)C(=O)N[C@@H](Cc1ccccc1)C(N)=O)[C@@H](C)CC (stereo partly shown) [VS1-48, 6-methyloctanoyl RWKRINRQWF-NH2] ({Octanoyl(6-Me)}-RWKRINRQWF-NH2)	2 µg/mL	8 µg/mL
